Test: In vitro liver microsome metabolic stability study
Assay type: in vitro ADME
Settings: human liver microsomes 0.5 mg/mL, compound 1 μM, 37° C., up to 60 minutes; read-out: Intrinsic hepatic clearance CLint(liver)
Protocol: Stock solution: 10 mM in DMSO.
Only 54 μL of microsomal working solution, 6 μL of NADPH regeneration system working solution, and 180 μL of stop solution were added to the blank plate.
LC-MS/MS analysis was performed.

- CLint scaled at 1 µM: < 8.6 mL/min/kg
Structure (SMILES): CCC(=O)N[C@H]1CCOc2c(-c3ccc4c(c3)CCC(=O)N4C)cncc21 (single isomer, unassigned) [Compound 037]
